The values below come from patent US20120004228A1, “Bis Aromatic Compounds for Use as LTC4 Synthase Inhibitors” (BIOLIPOX AB, priority 2009, published 2012).

This test deals with T1, Recombinant human LTC4 synthase (Homo sapiens, UniProt Q16873).
T1 construct: made in house; host or cells: Pichia pastoris ('Piccia pastoralis' [sic])
T1 sequence (Q16873 1-150): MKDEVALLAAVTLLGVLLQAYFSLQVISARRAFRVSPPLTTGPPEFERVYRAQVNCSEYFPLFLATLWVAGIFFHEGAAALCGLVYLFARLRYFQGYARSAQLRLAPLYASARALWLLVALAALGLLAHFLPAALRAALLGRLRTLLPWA
The test can be described thus: In vitro LTC4 synthase assay (LTA4 to LTC4, HTRF detection). In kind it is biochemical. The settings on record: for inhibition at 10 µM: 5 min, total concentration of title compound in the assay 10 μM. A general note: TR-FRET usually uses a lanthanide donor and a delayed reading to cut background.

By IC50 is commonly meant the concentration that inhibits the measured activity by half. Take `CN(c1ccc(Cl)cc1)c1ccc(C(=O)c2cc(C(=O)O)cc(N(CC3CCC3)c3ccccc3)c2)cc1` [10:30, 3-{4-[(4-Chlorophenyl)(methyl)amino]benzoyl}-5-[(cyclobutylmethyl)(phenyl)-amino]benzoic acid]: the half-inhibitory concentration (IC50) turned out to be 147 nM.

Consider `C=CCCC(=O)N(c1ccccc1)c1cc(C(=O)O)cc(C(=O)c2ccc(N(C)c3ccc(Cl)cc3)cc2)c1` [10:32, 3-{4-[(4-Chlorophenyl)(methyl)amino]benzoyl}-5-[(N-phenyl)pent-4-enamido]-benzoic acid], for which the 50% inhibitory concentration (IC50) is 662 nM.

Turning to `CCC(CC)C(=O)N(c1ccccc1)c1cc(C(=O)O)cc(C(=O)c2ccc(N(C)c3ccc(Cl)cc3)cc2)c1` [10:33, 3-{4-[(4-Chlorophenyl)(methyl)amino]benzoyl}-5-(2-ethyl-N-phenylbutan-amido)benzoic acid], the IC50 is 757 nM.

As for `CN(c1ccc(Cl)cc1)c1ccc(C(=O)c2cc(C(=O)O)cc(N(C(=O)C3CCOCC3)c3ccccc3)c2)cc1` [10:34, 3-{4-[(4-Chlorophenyl)(methyl)amino]benzoyl}-5-[(N-phenyl)-4-tetrahydro-pyrancarboxamido]benzoic acid], the IC50 amounted to 807 nM.

Take `CC(C)CN(c1ccccc1)c1cc(C(=O)O)cc(C(=O)c2ccc(N(C)c3ccc(Cl)cc3)cc2)c1` [10:35, 3-{4-[(4-Chlorophenyl)(methyl)amino]benzoyl}-5-[isobutyl(phenyl)amino]-benzoic acid]: the IC50 is 176 nM.

Regarding `CN(c1ccc(Cl)cc1)c1ccc(C(=O)c2cc(C(=O)O)cc(N(CC3CCCCO3)c3ccccc3)c2)cc1` (centres unmarked) [10:36, 3-{4-[(4-Chlorophenyl)(methyl)amino]benzoyl}-5-{pheny[(tetrahydropyran-2-yl)methyl]amino}benzoic acid], the IC50 was 25 nM.

Take `CN(c1ccc(Cl)cc1)c1ccc(C(=O)c2cc(C(=O)O)cc(N(CCCC(F)(F)F)c3ccccc3)c2)cc1` [10:37, 3-{4-[(4-Chlorophenyl)(methyl)amino]benzoyl}-5-[phenyl(4,4,4-trifluorobutyl)-amino]benzoic acid]: the half-inhibitory concentration (IC50) came to 252 nM.

Turning to `CN(c1ccc(Cl)cc1)c1ccc(C(=O)c2cc(C(=O)O)cc(N(C(=O)CC3CCCC3)c3ccccc3)c2)cc1` [10:39, 3-{4-[(4-Chlorophenyl)(methyl)amino]benzoyl}-5-[2-cyclopentyl-(N-phenyl)-acetamido]benzoic acid], the 50% inhibitory concentration (IC50) came to 192 nM.

As for `CN(c1ccc(Cl)cc1)c1ccc(C(=O)c2cc(OCc3ccccc3)cc(C(=O)O)c2)nc1` [11:2, 3-Benzyloxy-5-{5-[(4-chlorophenyl)(methyl)amino]picolinoyl}benzoic acid], the IC50 came out at 462 nM.

Regarding `COc1cccc(COc2cc(C(=O)O)cc(C(=O)c3ccc(N(C)c4ccc(Cl)cc4)cn3)c2)c1` [11:3, 3-{5-[(4-Chlorophenyl)(methyl)amino]picolinoyl}-5-(3-methoxybenzyloxy)-benzoic acid], the IC50 turned out to be 250 nM.

In the case of `CN(c1ccc(Cl)cc1)c1ccc(C(=O)c2cc(OCc3cccc(F)c3)cc(C(=O)O)c2)nc1` [11:4, 3-{5-[(4-Chlorophenyl)(methyl)amino]picolinoyl}-5-(3-fluorobenzyloxy)benzoic acid], the 50% inhibitory concentration (IC50) amounted to 454 nM.

Consider `CN(c1ccc(Cl)cc1)c1ccc(C(=O)c2cc(OCc3ccc4c(c3)OCO4)cc(C(=O)O)c2)nc1` [11:5, 3-{5-[(4-Chlorophenyl)(methyl)amino]picolinoyl}-5-(3,4-methylenedioxy-benzyloxy)benzoic acid], for which the IC50 stood at 584 nM.

Take `CN(c1ccc(Cl)cc1)c1ccc(C(=O)c2cc(C(=O)O)cc(-c3ccc(Cl)cc3)c2)nc1` [12:2, 4′-Chloro-5-{5-[(4-chlorophenyl)(methyl)amino]picolinoyl}biphenyl-3-carboxylic acid]: the IC50 is 445 nM.

Turning to `CN(c1ccc(Cl)cc1)c1ccc(C(=O)c2cc(C(=O)O)cc(-c3ccccc3Cl)c2)nc1` [12:3, 2′-Chloro-5-{5-[(4-chlorophenyl)(methyl)amino]picolinoyl}biphenyl-3-carboxylic acid], the IC50 was 234 nM.

In the case of `CN(c1ccc(Cl)cc1)c1ccc(C(=O)c2cc(Sc3ccccc3)cc(C(=O)O)c2)nc1` [19:4, 3-{5-[(4-Chlorophenyl)(methyl)amino]picolinoyl}-5-phenylsulfanylbenzoic acid], the half-inhibitory concentration (IC50) worked out at 211 nM.

As usually defined, the inhibition is the share of the control response that was lost under treatment. For the compound `CCCCCCC(=O)Nc1cc(C(=O)O)cc(C(=O)c2ccc(N(C)c3ccc(Cl)cc3)cc2)c1` [Example 1:2, 3-{4-[(4-Chlorophenyl)(methyl)amino]benzoyl}-5-heptylamidobenzoic acid], the half-inhibitory concentration (IC50) came out at 139 nM and the inhibition at 10 µM was determined as 94%.

Regarding `CN(c1ccc(Cl)cc1)c1ccc(C(=O)c2cc(C(=O)O)cc(C(=O)Nc3ccccc3)c2)nc1` [Example 2:1, 3-{5-[(4-Chlorophenyl)(methyl)aminol]picolinoyl}-5-(phenylcarbamoyl)benzoic acid], the IC50 was 449 nM.

For `CN(c1ccc(Cl)cc1)c1ccc(C(=O)c2cc(NC(=O)c3cccc(C(F)(F)F)c3)cc(C(=O)O)c2)nc1` [Example 2:7, 3-{5-[(4-Chlorophenyl)(methyl)amino]picolinoyl}-5-[3-(trifluoromethyl)benzamido]-benzoic acid], the IC50 was 549 nM.

Take `CN(c1ccc(Cl)cc1)c1ccc(C(=O)c2cc(C(=O)O)cc(C(=O)Nc3ccccc3)c2)cc1` [Example 2:11]: the half-maximal inhibitory concentration (IC50) stood at 694 nM.

Turning to `O=C(O)c1cc(Nc2ccc(Cl)cc2)cc(C(=O)c2ccc(Nc3ccc(Cl)cc3)cc2)c1` [Example 3, 3-(4-Chorophenylamino)-5-[4-(4-chlorophenylamino)benzoyl]benzoic acid], the IC50 came out at 146 nM and the inhibition at 10 µM stood at 99%.

Regarding `CCCCCCC(=O)Nc1ccc(C(=O)c2ccc(Nc3ccc(Cl)cc3)cc2C(=O)O)cc1` [Example 4:1, 5-(4-Chlorophenylamino)-2-(4-heptylamidobenzoyl)benzoic acid], the IC50 came out at 646 nM and the inhibition at 10 µM worked out at 98%.

With `CN(c1ccc(Cl)cc1)c1ccc(C(=O)c2ccc(NC(=O)c3cccc(Cl)c3)cc2)c(C(=O)O)c1` [Example 4:2, 2-[4-(3-Chlorobenzamido)benzoyl]-5-[(4-chlorophenyl)(methyl)amino)-benzoic acid], the IC50 turned out to be 703 nM and the inhibition at 10 µM was 100%.

Regarding `CN(c1ccc(Cl)cc1)c1ccc(C(=O)c2ccc(NS(=O)(=O)c3ccc(OC(F)(F)F)cc3)cc2)c(C(=O)O)c1` [Example 5, 5-[(4-Chlorophenyl)(methyl)amino]-2-[4-(4-trifluoromethoxybenzenesulfonamido)-benzoyl]benzoic acid], the concentration for half-maximal inhibition (IC50) amounted to 549 nM and the inhibition at 10 µM came out at 100%.

Take `O=C(O)c1cc(Nc2ccc(Cl)cc2)ccc1C(=O)c1ccc(Nc2ccc(Cl)cc2)cc1` [Example 6:1, 5-(4-Chlorophenylamino)-2-[4-(4-chlorophenylamino)benzoyl]benzoic acid]: the IC50 stood at 625 nM and the inhibition at 10 µM was 96%.

For the compound `CCCCOc1ccc(S(=O)(=O)Nc2cc(C(=O)O)cc(C(=O)c3ccc(Nc4ccc(Cl)cc4)cc3)c2)cc1` [Example 7, 3-(4-Butoxybenzensulfonamido)-5-[4-(4-chlorophenylamino)benzoyl]benzoic acid], the half-inhibitory concentration (IC50) was 89 nM and the inhibition at 10 µM was found to be 98%.

As to `CN(c1ccc(Cl)cc1)c1ccc(C(=O)c2cc(Oc3ccccc3)cc(C(=O)O)c2)nc1` [Example 8:1, 3-{5-[(4-Chlorophenyl)(methyl)aminol]picolinoyl}-5-phenoxybenzoic acid], the IC50 was 67 nM.

Regarding `CN(c1ccc(Cl)cc1)c1ccc(C(=O)c2cc(Oc3ccc(F)c(F)c3)cc(C(=O)O)c2)cc1` [Example 8:9, 3-{4-[(4-Chlorophenyl)(methyl)amino]benzoyl}-5-(3,4-difluorophenoxy)benzoic acid], the 50% inhibitory concentration (IC50) is 30 nM.

In the case of `CN(c1ccc(Cl)cc1)c1ccc(C(=O)c2cc(C(=O)O)cc(N(C)c3cccc(Cl)c3)c2)nc1` [Example 9:1, 3-[(3-Chlorophenyl)(methyl)amino]-5-{5-[(4-chlorophenyl)(methyl)amino]-picolinoyl}benzoic acid], the half-maximal inhibitory concentration (IC50) was found to be 147 nM.

Consider `CN(c1ccc(Cl)cc1)c1ccc(C(=O)c2cc(Nc3cccc(Cl)c3)cc(C(=O)O)c2)nc1` [Example 9:2, 3-{5-[(4-Chlorophenyl)(methyl)amino]picolinoyl}-5-(3-chlorophenylamino)-benzoic acid], for which the IC50 worked out at 248 nM.

Turning to `CN(c1ccc(Cl)cc1)c1ccc(C(=O)c2cc(C(=O)O)cc(N(CC3CC3)c3ccccc3)c2)nc1` [Example 9:7, 3-{5-[(4-Chlorophenyl)(methyl)amino]picolinoyl}-5-[(cyclopropylmethyl)(phenyl)-amino]benzoic acid], the IC50 came to 32 nM.

`CN(c1ccc(Cl)cc1)c1cc(C(=O)O)cc(C(=O)c2ccc(N(CC3CC3)c3ccc(Cl)cc3)cn2)c1` [Example 9:16, 3-{5-[(4-Chlorophenyl)(cyclopropylmethyl)amino]picolinoyl}-5-[(4-chlorophenyl)-(methyl)amino]benzoic acid]: the concentration for half-maximal inhibition (IC50) is 17 nM.

Regarding `CC(=O)N(c1ccccc1)c1cc(C(=O)O)cc(C(=O)c2ccc(N(C)c3ccc(Cl)cc3)cn2)c1` [Example 9:23, 3-{5-[(4-Chlorophenyl)(methyl)amino]picolinoyl}-5-(N-phenylacetamido)benzoic acid], the IC50 came to 199 nM.

On to `CN(c1ccc(Cl)cc1)c1ccc(C(=O)c2cc(C(=O)O)cc(N(CC(C)(C)O)c3ccccc3)c2)nc1` [Example 9:27, 3-{5-[(4-Chlorophenyl)(methyl)amino]picolinoyl}-5-[(2-hydroxy-2-methylpropyl)-(phenyl)amino]benzoic acid], for which the IC50 turned out to be 31 nM.

Turning to `CN(c1ccc(Cl)cc1)c1ccc(C(=O)c2cc(C(=O)O)cc(N(C)c3ccc(Cl)cc3)c2)cc1` [Example 10:1, 3-[(4-Chlorophenyl)(methyl)amino]-5-{4-[(4-chlorophenyl)(methyl)amino]benzoyl}-benzoic acid], the IC50 worked out at 41 nM.
